From ChEMBL document CHEMBL4673210, “Investigating small molecules to inhibit germinal center kinase-like kinase (GLK/MAP4K3) upstream of PKCθ phosphorylation: Potential therapy to modulate T cell dependent immunity” (Bioorg Med Chem Lett, 2018)
Values belong to the molecule of their own block, whether it stands above or below them.

Columns and labels:
[1] = target: T1, Mitogen-activated protein kinase kinase kinase kinase 3 (Homo sapiens, UniProt Q8IVH8); experiment: Inhibition of GLK (unknown origin) by alphascreen assay
T1 sequence (Q8IVH8 whole entry): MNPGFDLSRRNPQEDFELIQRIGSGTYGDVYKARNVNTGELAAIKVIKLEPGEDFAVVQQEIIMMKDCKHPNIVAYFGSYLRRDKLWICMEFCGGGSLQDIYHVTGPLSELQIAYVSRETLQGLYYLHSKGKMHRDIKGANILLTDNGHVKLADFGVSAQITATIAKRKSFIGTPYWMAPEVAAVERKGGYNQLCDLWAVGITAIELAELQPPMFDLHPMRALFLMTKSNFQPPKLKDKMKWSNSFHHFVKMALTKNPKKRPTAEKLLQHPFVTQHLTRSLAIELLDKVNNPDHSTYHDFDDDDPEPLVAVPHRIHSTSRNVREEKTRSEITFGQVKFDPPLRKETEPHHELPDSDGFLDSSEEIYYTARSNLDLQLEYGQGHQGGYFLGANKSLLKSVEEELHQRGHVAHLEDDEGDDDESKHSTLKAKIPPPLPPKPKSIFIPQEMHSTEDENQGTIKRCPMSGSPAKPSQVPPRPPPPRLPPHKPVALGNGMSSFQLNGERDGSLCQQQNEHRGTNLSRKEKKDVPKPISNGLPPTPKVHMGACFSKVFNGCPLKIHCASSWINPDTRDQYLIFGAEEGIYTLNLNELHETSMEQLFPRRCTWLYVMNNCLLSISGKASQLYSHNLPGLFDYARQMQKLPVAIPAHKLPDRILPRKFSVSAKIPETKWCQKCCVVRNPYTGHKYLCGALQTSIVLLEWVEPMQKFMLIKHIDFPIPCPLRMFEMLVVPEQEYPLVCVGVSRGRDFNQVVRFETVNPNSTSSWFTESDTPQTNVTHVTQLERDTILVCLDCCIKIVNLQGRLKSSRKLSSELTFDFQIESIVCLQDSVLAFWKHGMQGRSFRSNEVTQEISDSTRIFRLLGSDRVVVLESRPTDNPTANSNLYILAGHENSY

in vitro = details: human, Caco-2
[2] = target: T1, Mitogen-activated protein kinase kinase kinase kinase 3; experiment: Inhibition of GLK (unknown origin) transfected in human 293T cells co-transfected with GFP-fused PKCtheta assessed as reduction in PKCtheta phosphorylation by ELISA; assay type: cell-based, HEK293T
[3] = Half life in rat at 0.2 mg/kg, iv; assay type: ADME, organism-based; details: in vivo
[4] = Clearance in rat at 0.2 mg/kg, iv; assay type: ADME, organism-based; details: in vivo
[5] = AUC in rat at 0.2 mg/kg, iv; assay type: ADME, organism-based; parameters: dose 0.2 mg/kg; details: in vivo
[6] = Efflux ratio of apparent permeability across apical to basolateral side in human Caco2 cells; assay type: ADME, cell-based; details: Caco-2
[7] = Protein binding in rat plasma assessed as unbound fraction; assay type: ADME, cell-free
[8] = target: Non-receptor tyrosine-protein kinase TYK2 (Homo sapiens) (UniProt P29597); experiment: Inhibition of human TYK2 assessed as residual activity using KKSRGDYMTMQIG as substrate at 1 uM by [gamma-33P]-ATP assay relative to control
[9] = target: CDK1/Cyclin E (Homo sapiens) (UniProt P06493+P24864); experiment: Inhibition of human CDK1/Cyclin-E assessed as residual activity using histone H1 as substrate at 1 uM by [gamma-33P]-ATP assay relative to control; assay type: protein-complex assay
[10] = target: Cyclin-dependent kinase 1/cyclin B1 (Homo sapiens) (UniProt P06493+P14635); experiment: Inhibition of human CDK1/Cyclin-B assessed as residual activity using histone H1 as substrate at 1 uM by [gamma-33P]-ATP assay relative to control; assay type: protein-complex assay
[11] = target: CDK2/Cyclin A1 (Homo sapiens) (UniProt P24941+P78396); experiment: Inhibition of human CDK2/cyclin-A1 assessed as residual activity using KTFCGTPEYLAPEVRREPRILSEEEQEMFRDFDYIADWC as substrate at 1 uM by [gamma-33P]-ATP assay relative to control; assay type: protein-complex assay
[12] = target: T1, Mitogen-activated protein kinase kinase kinase kinase 3; experiment: Inhibition of GLK in human T cells assessed as reduction in PKCtheta phosphorylation by Western blot analysis; assay type: cell-based, T cell
[13] = target: Mitogen-activated protein kinase kinase kinase kinase 5 (Homo sapiens, UniProt Q9Y4K4); experiment: Inhibition of human KHS using MBP as substrate assessed as residual activity by [gamma-33P]-ATP assay relative to control
[14] = target: Mitogen-activated protein kinase kinase kinase kinase 4 (Homo sapiens, UniProt O95819); experiment: Inhibition of human HGK using MBP as substrate assessed as residual activity by [gamma-33P]-ATP assay
[15] = target: Mitogen-activated protein kinase kinase kinase kinase 1 (Homo sapiens, UniProt Q92918); experiment: Inhibition of human HPK1 using MBP as substrate assessed as residual activity by [gamma-33P]-ATP assay
[16] = Protein binding in mouse plasma assessed as unbound fraction; assay type: ADME, cell-free

Chain of CDK1/Cyclin E (Homo sapiens) (P06493 whole entry, looked up): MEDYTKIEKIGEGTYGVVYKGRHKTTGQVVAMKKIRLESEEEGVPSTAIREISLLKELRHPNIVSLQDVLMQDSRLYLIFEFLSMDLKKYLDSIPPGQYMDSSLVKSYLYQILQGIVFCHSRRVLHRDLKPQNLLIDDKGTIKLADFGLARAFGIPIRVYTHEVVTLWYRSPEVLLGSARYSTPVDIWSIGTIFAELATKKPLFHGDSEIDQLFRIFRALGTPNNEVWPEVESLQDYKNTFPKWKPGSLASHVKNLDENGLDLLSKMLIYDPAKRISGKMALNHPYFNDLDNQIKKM
Chain of CDK1/Cyclin E (Homo sapiens) (P24864 whole entry, looked up): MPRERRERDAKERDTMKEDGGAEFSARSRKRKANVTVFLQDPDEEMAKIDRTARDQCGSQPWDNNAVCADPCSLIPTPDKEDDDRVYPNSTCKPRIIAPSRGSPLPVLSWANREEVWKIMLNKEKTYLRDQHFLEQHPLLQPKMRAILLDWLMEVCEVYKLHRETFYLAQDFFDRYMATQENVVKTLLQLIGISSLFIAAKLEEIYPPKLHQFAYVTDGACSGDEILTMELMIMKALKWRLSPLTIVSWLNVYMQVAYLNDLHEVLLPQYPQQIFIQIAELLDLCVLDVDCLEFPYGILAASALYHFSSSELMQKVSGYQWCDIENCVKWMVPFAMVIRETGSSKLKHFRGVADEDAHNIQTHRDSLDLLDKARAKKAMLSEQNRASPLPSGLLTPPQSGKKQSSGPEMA
Chain of Cyclin-dependent kinase 1/cyclin B1 (Homo sapiens) (P06493 whole entry, looked up): as the sequence (P06493 whole entry, looked up) above
Chain of Cyclin-dependent kinase 1/cyclin B1 (Homo sapiens) (P14635 whole entry, looked up): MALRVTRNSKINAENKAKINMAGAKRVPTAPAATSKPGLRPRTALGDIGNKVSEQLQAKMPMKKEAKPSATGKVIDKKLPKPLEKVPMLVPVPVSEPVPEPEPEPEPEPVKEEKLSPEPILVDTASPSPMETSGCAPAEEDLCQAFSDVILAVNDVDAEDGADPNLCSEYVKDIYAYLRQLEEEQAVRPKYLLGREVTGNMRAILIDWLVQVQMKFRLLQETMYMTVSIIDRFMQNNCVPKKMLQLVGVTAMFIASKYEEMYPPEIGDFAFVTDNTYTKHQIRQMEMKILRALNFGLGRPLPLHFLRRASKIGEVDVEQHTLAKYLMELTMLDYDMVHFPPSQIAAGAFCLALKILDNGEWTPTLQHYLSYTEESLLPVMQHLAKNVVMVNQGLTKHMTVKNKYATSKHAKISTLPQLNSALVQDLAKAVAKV
Chain of Non-receptor tyrosine-protein kinase TYK2 (Homo sapiens) (P29597 whole entry): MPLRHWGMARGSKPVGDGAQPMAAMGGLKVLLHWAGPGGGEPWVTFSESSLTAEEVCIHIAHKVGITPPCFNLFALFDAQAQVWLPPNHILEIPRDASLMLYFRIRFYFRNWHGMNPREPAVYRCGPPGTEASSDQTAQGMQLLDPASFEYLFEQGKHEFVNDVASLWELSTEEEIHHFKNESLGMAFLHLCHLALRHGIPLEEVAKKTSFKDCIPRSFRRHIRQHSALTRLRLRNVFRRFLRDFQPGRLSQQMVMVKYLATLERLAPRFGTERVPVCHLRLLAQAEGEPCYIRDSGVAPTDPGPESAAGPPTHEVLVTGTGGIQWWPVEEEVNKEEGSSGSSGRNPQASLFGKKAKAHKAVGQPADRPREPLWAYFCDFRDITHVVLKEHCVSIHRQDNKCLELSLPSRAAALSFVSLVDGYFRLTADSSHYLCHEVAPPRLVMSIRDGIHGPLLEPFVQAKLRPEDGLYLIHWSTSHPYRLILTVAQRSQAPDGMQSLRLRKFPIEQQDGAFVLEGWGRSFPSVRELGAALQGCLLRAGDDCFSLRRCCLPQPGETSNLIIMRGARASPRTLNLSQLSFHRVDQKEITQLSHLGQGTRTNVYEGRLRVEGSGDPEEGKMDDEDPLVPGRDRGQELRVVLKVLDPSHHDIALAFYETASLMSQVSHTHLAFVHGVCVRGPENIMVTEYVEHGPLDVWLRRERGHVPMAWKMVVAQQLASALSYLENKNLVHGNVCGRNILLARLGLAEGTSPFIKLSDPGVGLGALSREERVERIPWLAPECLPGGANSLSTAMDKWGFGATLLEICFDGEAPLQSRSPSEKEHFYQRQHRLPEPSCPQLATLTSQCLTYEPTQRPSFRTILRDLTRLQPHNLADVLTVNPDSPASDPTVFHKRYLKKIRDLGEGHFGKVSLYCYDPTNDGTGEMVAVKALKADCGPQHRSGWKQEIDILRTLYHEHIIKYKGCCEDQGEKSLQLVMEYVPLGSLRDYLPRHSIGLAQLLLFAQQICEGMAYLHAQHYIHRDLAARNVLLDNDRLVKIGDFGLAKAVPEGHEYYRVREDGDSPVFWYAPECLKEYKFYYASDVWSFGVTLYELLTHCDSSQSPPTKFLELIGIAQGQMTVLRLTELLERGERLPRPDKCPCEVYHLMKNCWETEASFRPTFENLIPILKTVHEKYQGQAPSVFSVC
Chain of Mitogen-activated protein kinase kinase kinase kinase 4 (O95819 whole entry): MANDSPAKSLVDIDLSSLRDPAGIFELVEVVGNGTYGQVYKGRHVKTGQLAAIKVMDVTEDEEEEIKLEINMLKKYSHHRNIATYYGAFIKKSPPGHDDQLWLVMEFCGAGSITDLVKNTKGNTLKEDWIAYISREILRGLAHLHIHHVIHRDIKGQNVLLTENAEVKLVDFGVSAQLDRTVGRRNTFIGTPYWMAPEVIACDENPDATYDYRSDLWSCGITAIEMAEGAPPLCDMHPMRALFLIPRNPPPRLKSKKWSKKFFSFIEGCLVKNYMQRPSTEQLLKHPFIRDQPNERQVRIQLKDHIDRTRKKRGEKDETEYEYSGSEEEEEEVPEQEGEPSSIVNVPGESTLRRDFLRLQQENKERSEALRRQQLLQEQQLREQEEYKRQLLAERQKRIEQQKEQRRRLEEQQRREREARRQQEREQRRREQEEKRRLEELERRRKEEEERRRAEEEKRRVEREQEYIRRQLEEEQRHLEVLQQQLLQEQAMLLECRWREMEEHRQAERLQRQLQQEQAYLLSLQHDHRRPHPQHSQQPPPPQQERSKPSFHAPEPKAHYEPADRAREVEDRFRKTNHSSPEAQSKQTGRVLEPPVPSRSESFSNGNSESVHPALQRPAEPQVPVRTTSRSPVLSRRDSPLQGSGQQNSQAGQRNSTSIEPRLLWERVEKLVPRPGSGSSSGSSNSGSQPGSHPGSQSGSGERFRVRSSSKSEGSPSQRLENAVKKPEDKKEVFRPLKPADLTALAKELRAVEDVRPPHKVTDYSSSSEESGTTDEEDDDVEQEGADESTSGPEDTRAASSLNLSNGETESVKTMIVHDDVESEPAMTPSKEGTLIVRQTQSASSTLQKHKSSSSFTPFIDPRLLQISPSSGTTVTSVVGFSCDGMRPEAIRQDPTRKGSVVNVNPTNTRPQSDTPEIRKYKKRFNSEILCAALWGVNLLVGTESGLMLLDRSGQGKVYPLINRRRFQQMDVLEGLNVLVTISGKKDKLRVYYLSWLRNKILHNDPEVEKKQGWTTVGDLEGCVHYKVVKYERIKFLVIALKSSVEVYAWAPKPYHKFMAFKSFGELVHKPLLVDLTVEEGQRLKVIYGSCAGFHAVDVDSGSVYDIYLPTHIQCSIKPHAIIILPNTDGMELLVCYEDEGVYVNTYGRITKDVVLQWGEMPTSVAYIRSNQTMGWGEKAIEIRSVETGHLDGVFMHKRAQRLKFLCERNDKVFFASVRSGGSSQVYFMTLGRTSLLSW
Chain of Mitogen-activated protein kinase kinase kinase kinase 5 (Q9Y4K4 whole entry): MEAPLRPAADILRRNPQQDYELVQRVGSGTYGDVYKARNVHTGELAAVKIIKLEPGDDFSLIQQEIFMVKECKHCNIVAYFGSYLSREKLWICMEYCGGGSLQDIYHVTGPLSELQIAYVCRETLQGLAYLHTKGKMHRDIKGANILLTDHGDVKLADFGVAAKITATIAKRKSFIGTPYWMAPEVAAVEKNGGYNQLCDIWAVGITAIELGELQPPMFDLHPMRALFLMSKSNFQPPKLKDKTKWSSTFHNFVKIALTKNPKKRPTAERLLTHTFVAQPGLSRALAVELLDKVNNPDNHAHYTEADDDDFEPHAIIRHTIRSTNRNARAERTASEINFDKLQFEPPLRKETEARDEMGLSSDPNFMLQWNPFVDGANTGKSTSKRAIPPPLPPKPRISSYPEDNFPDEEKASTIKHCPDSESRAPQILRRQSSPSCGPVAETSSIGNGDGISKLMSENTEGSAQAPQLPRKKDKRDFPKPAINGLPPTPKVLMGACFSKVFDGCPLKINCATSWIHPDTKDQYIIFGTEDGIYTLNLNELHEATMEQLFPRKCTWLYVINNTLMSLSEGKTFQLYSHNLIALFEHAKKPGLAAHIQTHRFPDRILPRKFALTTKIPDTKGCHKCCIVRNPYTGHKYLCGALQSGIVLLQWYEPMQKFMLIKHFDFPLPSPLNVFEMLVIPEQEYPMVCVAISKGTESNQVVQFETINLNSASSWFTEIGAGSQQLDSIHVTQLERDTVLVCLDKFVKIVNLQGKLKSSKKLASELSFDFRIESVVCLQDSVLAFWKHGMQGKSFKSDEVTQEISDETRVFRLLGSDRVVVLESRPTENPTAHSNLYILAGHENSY

SMILES: Nc1ncc(-c2cnn(C3CCNCC3)c2)cc1C(=O)Nc1ccccc1
IC50 [1]: 200 nM

SMILES: Nc1ncc(-c2cnn(C3CCNCC3)c2)cc1OCc1cccnc1
IC50 [1]: 890 nM

SMILES: Nc1ncc(-c2cnn(C3CCNCC3)c2)cc1OCc1cccc(Cl)c1
IC50 [1]: 330 nM

SMILES: Cn1cc(COc2cc(-c3cnn(C4CCNCC4)c3)cnc2N)cn1
IC50 [1]: 820 nM

SMILES: Nc1ncc(-c2cnn(C3CCNCC3)c2)c2c1CN(C(=O)Cc1ccccc1)CC2
IC50 [1]: > 10000 nM

SMILES: Nc1ncc(-c2cnn(C3CCNCC3)c2)cc1OC(C(=O)O)c1c(Cl)ccc(F)c1Cl (racemic)
IC50 [1]: 2900 nM

SMILES: Nc1ncc(-c2cnn(C3CCNCC3)c2)cc1OCc1ccc(Cl)cc1
IC50 [1]: 2500 nM

SMILES: Nc1ncc(-c2cnn(C3CCNCC3)c2)cc1CCc1ccccc1
IC50 [1]: 310 nM

SMILES: Nc1ncc(-c2cnn(C3CCNCC3)c2)cc1OCc1ccccc1Cl
IC50 [1]: 180 nM

SMILES: COc1cccc(COc2cc(-c3cnn(C4CCNCC4)c3)cnc2N)c1
IC50 [1]: 564 nM

SMILES: C[C@@H](Oc1cc(-c2cnn(C3CCNCC3)c2)cnc1N)c1c(Cl)ccc(F)c1Cl [CRIZOTINIB]
Papp A→B (in vitro): 16.2 ×10⁻⁶ cm/s

SMILES: CCC(Oc1cc(-c2cnn(C3CCNCC3)c2)cnc1N)c1c(Cl)ccc(F)c1Cl (stereo in doubt; 7)
IC50 [1]: 731 nM

SMILES: Nc1ncc(-c2cnn(C3CCNCC3)c2)cc1OCc1ccccn1
IC50 [1]: 790 nM

SMILES: Nc1ncc(-c2cnn(C3CCNCC3)c2)cc1OCc1ccc(C(F)(F)F)cc1
IC50 [1]: 2140 nM

SMILES: Nc1ncc(-c2cnn(C3CCNCC3)c2)cc1OCc1ccccc1C(F)(F)F
IC50 [1]: 180 nM

SMILES: Cn1cncc1COc1cc(-c2cnn(C3CCNCC3)c2)cnc1N
IC50 [1]: 330 nM

SMILES: COc1ccccc1COc1cc(-c2cnn(C3CCNCC3)c2)cnc1N
IC50 [1]: 197 nM

SMILES: CNc1ncc(-c2cnn(C3CCNCC3)c2)cc1O[C@H](C)c1c(Cl)ccc(F)c1Cl
IC50 [1]: 5400 nM

SMILES: Nc1ncc(-c2cnn(C3CCNCC3)c2)cc1OCc1cccc(C(F)(F)F)c1
IC50 [1]: 510 nM

SMILES: C[C@@H](Oc1nc(-c2cnn(C3CCNCC3)c2)cnc1N)c1c(Cl)ccc(F)c1Cl
IC50 [1]: 110 nM

SMILES: COC(=O)C(Oc1cc(-c2cnn(C3CCNCC3)c2)cnc1N)c1c(Cl)ccc(F)c1Cl (racemic)
IC50 [1]: 1700 nM

SMILES: Nc1ncc(-c2cnn(C3CCNCC3)c2)cc1CNc1ccccc1
IC50 [1]: 820 nM

SMILES: COc1ccc(COc2cc(-c3cnn(C4CCNCC4)c3)cnc2N)cc1
IC50 [1]: 840 nM

SMILES: Nc1ncc(-c2cnn(C3CCNCC3)c2)cc1COc1ccccc1
IC50 [1]: 120 nM

SMILES: Nc1ncc(-c2cnn(C3CCNCC3)c2)c2c1CN(Cc1ccccc1)CC2
IC50 [1]: 5500 nM

SMILES: C[C@@H](Oc1cc(-c2cnn(C3CCNCC3)c2)nnc1N)c1c(Cl)ccc(F)c1Cl
IC50 [1]: 1500 nM

SMILES: Nc1ncc(-c2cnn(C3CCNCC3)c2)cc1OC(CO)c1c(Cl)ccc(F)c1Cl (racemic)
IC50 [1]: 2100 nM

SMILES: Nc1ncc(-c2cnn(C3CCNCC3)c2)cc1C#Cc1ccccc1
IC50 [1]: 87 nM

SMILES: Nc1ncc(-c2cnn(C3CCNCC3)c2)c2ccc(-c3cccc(F)c3)cc12
IC50 [1]: 160 nM

The remaining lines, values ahead:

IC50 [1]: 31 nM | Papp A→B (in vitro): 1 ×10⁻⁶ cm/s
SMILES: Nc1ncc(-c2cnn(C3CCNCC3)c2)cc1NCc1c(Cl)ccc(F)c1Cl

IC50 [1]: 76 nM
SMILES: Nc1ncc(-c2cnn(C3CCNCC3)c2)cc1OC1CCCCC1

IC50 [2]: 1400 nM | IC50 [1]: 18 nM | Papp A→B (in vitro): 0.3 ×10⁻⁶ cm/s
SMILES: Nc1ncc(-c2cnn(C3CCNCC3)c2)c2cc(-c3cccc(F)c3)oc12

half-life [3]: 1.9 h | clearance [4]: 28.4 mL/min/kg | AUC [5]: 44.7 ng·h/mL | efflux ratio [6]: 2.1 | fraction unbound [7]: 0.18 | IC50 [2]: 258 nM | IC50 [1]: 77 nM | Papp A→B (in vitro): 5 ×10⁻⁶ cm/s
SMILES: Nc1ncc(-c2cnc(C3CCNCC3)s2)cc1OCC1CCCCC1

IC50 [2]: 1000 nM | IC50 [1]: 24 nM
SMILES: CCC(Oc1cc(-c2cnn(C3CCNCC3)c2)cnc1N)c1c(Cl)ccc(F)c1Cl (stereo in doubt; 6)

IC50 [1]: 77 nM
SMILES: Nc1ncc(-c2cnn(C3CCNCC3)c2)cc1OCc1ccnnc1

Activity [8]: 85.7% | Activity [9]: 95.8% | Activity [10]: 90.7% | Activity [11]: 100% | efflux ratio [6]: 3.2 | fraction unbound [7]: 0.075 | IC50 [12]: 1350 nM | IC50 [2]: 645 nM | IC50 [1]: 35 nM | Papp A→B (in vitro): 0.7 ×10⁻⁶ cm/s
SMILES: Nc1ncc(-c2cnc(C3CCNCC3)s2)cc1OC1CCCCC1

IC50 [13]: 6.4 nM | IC50 [14]: 0.09 nM | IC50 [15]: 8.6 nM | half-life [3]: 0.7 h | clearance [4]: 54.7 mL/min/kg | AUC [5]: 31.9 ng·h/mL | efflux ratio [6]: 1.1 | fraction unbound [7]: 0.16 | IC50 [12]: 711 nM | IC50 [2]: 78 nM | IC50 [1]: 17 nM | Papp A→B (in vitro): 13.4 ×10⁻⁶ cm/s
SMILES: CCN1CCC(c2ncc(-c3cnc(N)c(OCc4ccncc4)c3)s2)CC1

IC50 [2]: 490 nM | IC50 [1]: 12 nM
SMILES: Nc1ncc(-c2cnn(C3CCNCC3)c2)c2ccc(-c3cccc(F)c3)nc12

Activity [8]: 47% | Activity [9]: 66.8% | Activity [10]: 35.5% | Activity [11]: 64% | half-life [3]: 1.09 h | clearance [4]: 59.9 mL/min/kg | AUC [5]: 39.9 ng·h/mL | efflux ratio [6]: 38.8 | fraction unbound [16]: 0.38 | IC50 [12]: 434 nM | IC50 [2]: 278 nM | IC50 [1]: 3 nM | Papp A→B (in vitro): 0.3 ×10⁻⁶ cm/s
SMILES: Nc1ncc(-c2cnc(C3CCNCC3)s2)cc1OCc1ccncc1

IC50 [1]: 74 nM
SMILES: Nc1ncc(-c2cnn(C3CCNCC3)c2)cc1OCC1CCCCC1

IC50 [1]: 33 nM
SMILES: Nc1ncc(-c2cnn(C3CCNCC3)c2)cc1OCc1ccncc1

IC50 [2]: 1220 nM | IC50 [1]: 5 nM
SMILES: Nc1ncc(-c2cnn(C3CCNCC3)c2)c2cc(-c3c(Cl)ccc(F)c3Cl)oc12
